In PMC8767159, “Multiparameter Optimization of Trypanocidal Cruzain Inhibitors With In Vivo Activity and Favorable Pharmacokinetics” (Frontiers in Pharmacology, 2022):

What was measured:
[1] = Cytotoxicity MTS assay in HFF-1 fibroblasts; format: cell-based; details: human HFF-1 fibroblasts
Protocol: The synthesized compounds were evaluated for their cytotoxicity against HFF-1 cells using the MTS assay (Promega, Madison, WI) ([Barltrop et al., 1991]) as previously described ([Ferreira et al., 2019]). HFF-1 fibroblasts were plated at 2 × 10^3/well in 96-well culture plates in RPMI 1640 without phenol red enriched with 10% FCS and incubated overnight at 37°C and 5% CO2. Next, 7 concentrations (0.1–100 µM) of the compounds were added in 3-fold serial dilutions, each concentration in triplicate, and the plates were incubated for 72 h at 37°C and 5% CO2. Next, 20 µl of MTS was added to each well, and the plates were incubated for an additional 4 h at 37°C and 5% CO2. The absorbance was measured at 490 nm using a spectrophotometer, and the data were transferred to SigmaPlot 10.0 (Systat Software Inc., Erkrath, Germany) to determine the IC50 values. Doxorubicin (Sigma–Aldrich) was used as a positive control, and untreated wells (100% growth) were used as negative controls in all plates. All compounds were tested in two independent assays.

[2] = In vitro metabolic stability in human liver microsomes; format: in vitro ADME; details: for CLint (L/h/kg) Human: Table S5; for CLint_u (L/h/kg) Human: Table S5, CLint/fu
Protocol: (§1) Isolated mouse (BD Gentest, Bedford, MA) and human liver microsomes (XenoTech, Kansas City, KS) ([Plant, 2004]) were added at a final concentration of 0.25 mg/ml to a solution containing 40 mM dibasic potassium phosphate and 10 mM monobasic potassium phosphate. Stock solutions of compounds at 5 mM were prepared in 100% DMSO. A 50:50 quenching solution of acetonitrile (ACN) and methanol (MeOH) was prepared. An NADPH solution was prepared at 10 mM. The preparations containing the microsomes were added to each well of the incubation plate (450 µl), which was then heated to 37°C for 10 min. The compounds were added to the respective wells of the test plate (2 µl). Then, 300 µl of the microsome preparation was added to each well of the test plate. The test plate was heated under gentle rotation for 5 min at 37°C. Next, 90 µl of the mixture contained in the test plate was added to the incubation plate, making a final volume of 540 µl. Samples were collected at the following incubation times: 0, 5, 10, 15, 20, and 30 min. To the 0 min sample plate, quenching solution (180 µl), NADPH (6 µl), and the incubation plate mixture (54 µl) were added to each well. The sample plate was then sealed, homogenized, and stored at 4°C. Then, 54 µl of the NADPH solution was added to the incubation plate, which was homogenized. Before the collection of each sample at the established times, 45 µl of the quenching solution was added to each well of the corresponding sample plates. After reaching the incubation times, 60 µl of the mixture contained in the incubation plate was added to the corresponding sample plates. The sample plates were then sealed and stored at 4°C. After the collection of the last sample (30 min), all sample plates were centrifuged at 3,800 rpm for 30 min. The supernatant from each well was collected and transferred to clean plates for mass spectrometry. Five to 10 µl of each sample was injected into an AB Sciex Triple Quad 5500 LC-MS/MS instrument.
(§2) For the biotransformation experiments and analysis of metabolites in microsomes, an Ultra-High-Pressure Liquid Chromatography instrument (UHPLC, Thermo Accela, Waltham, MA) ([Spaggiari et al., 2014]) connected to an automatic sample injector and a 1250 series pump was used. The UHPLC system was connected to a Thermo Fisher (Waltham, MA) LTQ Orbitrap mass spectrometer. For all other analyses, an AB Sciex Triple Quad 5500 coupled to a UHPLC equipped with a UV 1290 diode detector (Agilent Technologies, Santa Clara, CA) and a CTC PAL self-collecting system (LEAP Technologies, Carrboro, NC) was used. Q1 MS positive ion mode (300–500 Da) was used to detect the ions of the parent compounds. The UV detector was operated in spectral mode (250–280 nm). A Hypersil Gold C18 (2.1 mm × 100 mm, 1.9 µm, Thermo Fisher) HPLC column was used. The mobile phases were solvent A (0.1% formic acid in water) and solvent B (0.1% formic acid in ACN). The flow was adjusted to 0.55 ml/min, and the injection volume was adjusted to […]. The gradient started with 1% solvent B for 0.4 min, reached 40% (solvent B) in 2.3 min and 95% (solvent B) in 0.67 min, was maintained for 0.5 min, and returned to the initial condition of 1%. This condition was maintained for 1 min before injection of the next sample. The peak area ratio (peak area of the test compounds/peak area of the control compounds) was converted to the percentage of remaining compound, with the 0 min time point ratio set to 100%. T½ and CLint were calculated from the percentage of remaining compound versus the incubation time. From the resulting function, the slope (k) was determined. The equations T1/2 (min) = ln(2)/k and CLint in vitro (μL/min/mg) = k*1000/0.25 were used to determine T½ and CLint.

[3] = In vitro metabolic stability in mouse liver microsomes; format: in vitro ADME; details: for CLint (L/h/kg) Mouse: Table S5; for CLint_u (L/h/kg) Mouse: Table S5, CLint/fu
Protocol: as §1, §2

[4] = Fraction unbound by equilibrium dialysis; format: in vitro ADME; details: Table S5; fraction unbound
Protocol: The fraction unbound (fu) ([Masimirembwa et al., 2003]) of the test compounds was determined after incubation with different media, namely, plasma, microsomes, and buffer with 10% FCS. Equilibrium dialysis was performed in a 96-well plate (HT-Dialysis, Gales Ferry, CT) in which each well was divided by a semipermeable membrane (12–14 kDa cutoff). The test compounds diluted in either plasma, microsome suspension, or buffer were added to one side of the membrane. Potassium phosphate buffer (50 mM, pH 7.4) was added to the other side of the membrane. A standard curve was used to calculate the compound concentration (fu) on each side of the membrane. Stock solutions of each compound were prepared in 100% DMSO to obtain a final concentration of 1 mM. The following compound concentrations were used: 1, 2, 20, 200, 2,000 and 5,000 nM. To 500 μl of medium, 0.5 μl of the compound stock solution was added, and this was applied to one side of the well. Each compound was evaluated in triplicate. Next, the plate was assembled, sealed, and incubated at 37°C under rotation (150 rpm) for 4 h. After the incubation period, the plates were subjected to LC-MS/MS.

Row | SMILES | IC50 at 72 h [1] [nM] | CLint (L/h/kg) Human [2] [L/h/kg] | CLint_u (L/h/kg) Human [2] | CLint (L/h/kg) Mouse [3] [L/h/kg] | CLint_u (L/h/kg) Mouse [3] | fu [4]
1 | COc1cccc2c1C(=O)c1c(O)c3c(c(O)c1C2=O)C[C@@](O)(C(=O)CO)C[C@@H]3O[C@H]1C[C@H](N)[C@H](O)[C@H](C)O1 [Doxorubicin, reference compound] | 260 |  |  |  |  | 
2 | O=C(COc1cccc2ccccc12)NCCc1nc2ccccc2[nH]1 [Compound 44] |  | 23.80 | 70.62 L/h/kg | 504.00 | 1,495.55 L/h/kg | 0.34
3 | O=C(COc1ccc2ccccc2c1Br)NCCc1nc2cc(Cl)ccc2[nH]1 [Compound 52] |  | 41.60 | 2,122.45 L/h/kg | 407.00 |  | 0.02
4 | O=C(COc1ccc2ccccc2c1Br)NCCc1nc2ccccc2n1CCC(=O)c1cccs1 [Compound 61] |  | 157.00 | 3,634.26 L/h/kg | 355.00 |  | 0.04
5 | Nc1ccccc1OCC(=O)NCCc1nc2ccccc2[nH]1 [Compound 42] |  | 3.91 | 4.64 L/h/kg | 24.80 | 29.45 L/h/kg | 0.84
6 | O=C(COc1ccc2ccccc2c1CO)NCCc1nc2ccccc2[nH]1 [Compound 46] |  | 24.70 | 32.04 L/h/kg | 757.00 | 981.84 L/h/kg | 0.77
7 | COc1cccc(C(=O)CCn2c(CCNC(=O)COc3ccc4ccccc4c3Br)nc3ccccc32)c1 [Compound 62] |  | 125.00 | 5,186.72 L/h/kg | 331.00 |  | 0.02
8 | COc1ccc2[nH]c(CCNC(=O)COc3ccc4ccccc4c3Br)nc2c1 [Compound 53] |  | 72.40 | 404.47 L/h/kg | 500.00 | 2,793.30 L/h/kg | 0.18
9 | Cc1cc(C)c(C#N)c(SCC(=O)NCCc2c[nH]c3ccccc23)n1 [Compound 60] |  | 155.00 | 194.48 L/h/kg | 485.00 | 608.53 L/h/kg | 0.79
10 | O=Cc1c(OCC(=O)NCCc2nc3ccccc3[nH]2)ccc2ccccc12 [Compound 45] |  | 37.30 | 71.18 L/h/kg | 669.00 | 1,276.72 L/h/kg | 0.52
11 | O=C(COc1ccccc1Cl)NCCc1nc2ccccc2[nH]1 [Compound 40] |  | 19.50 | 22.70 L/h/kg |  | 419.09 L/h/kg | 0.86
12 | COc1ccc(C(=O)Cn2c(CCNC(=O)COc3ccc4ccccc4c3Br)nc3ccccc32)cc1 [Compound 63] |  | 40.40 | 2,104.17 L/h/kg | 50.10 | 2,609.38 L/h/kg | 0.02
